Experimental data reported in ChEMBL document CHEMBL5321295, “Targeted Degradation of Alpha-Synuclein by Autophagosome-Anchoring Chimera Peptides” (J Med Chem, 2023).
Calls of active or inactive are those of the source. No cut-off for these calls is given here.

Assays:
[1] = target: T1, Microtubule-associated protein 1 light chain 3 beta (Homo sapiens, UniProt Q9GZQ8); test: Induction of LC3B-mediated autophagy flux in HEK293T cells overexpressing alpha-synuclein (unknown origin) cotransfected with adenovirus-packaged plasmid encoding mCherry-EGFP-fused LC3B assessed as increase in number of autolysosomes incubated for 4 hrs by confocal laser scanning microscopy; format: cell-based; conditions: dose <= 100.0 µM
Alpha-synuclein [2] = target: T2, Alpha-synuclein (Homo sapiens, UniProt P37840); test: Binding affinity to biotinylated recombinant alpha-synuclein (unknown origin) assessed as dissociation constant by BLI assay
[3] = target: T1, Microtubule-associated protein 1 light chain 3 beta; test: Binding affinity to biotinylated recombinant LC3B (unknown origin) assessed as dissociation constant by BLI assay
Alpha-synuclein [4] = target: T2, Alpha-synuclein; test: Induction of alpha-synuclein (unknown origin) degradation overexpressed in HEK293T cells infected with adenovirus expressing mCherry-EGFP-LC3B at 50 uM incubated for 3 hrs by immunoblot analysis; format: cell-based
HEK-293T [5] = test: Downregulation of SMAP expression in HEK293T cells at 100 uM incubated for 24 hrs by proteomic profiling analysis; format: functional, cell-based; conditions: Homo sapiens
HEK-293T [6] = test: Downregulation of EIF4H expression in HEK293T cells at 100 uM incubated for 24 hrs by proteomic profiling analysis; format: functional, cell-based; conditions: Homo sapiens
HEK-293T [7] = test: Downregulation of VAT1 expression in HEK293T cells at 100 uM incubated for 24 hrs by proteomic profiling analysis; format: functional, cell-based; conditions: Homo sapiens
HEK-293T [8] = test: Downregulation of MYL12A expression in HEK293T cells at 100 uM incubated for 24 hrs by proteomic profiling analysis; format: functional, cell-based; conditions: Homo sapiens
HEK-293T [9] = test: Downregulation of NME1 expression in HEK293T cells at 100 uM incubated for 24 hrs by proteomic profiling analysis; format: functional, cell-based; conditions: Homo sapiens
HEK-293T [10] = test: Downregulation of EIF2S1 expression in HEK293T cells at 100 uM incubated for 24 hrs by proteomic profiling analysis; format: functional, cell-based; conditions: Homo sapiens
[11] = target: T1, Microtubule-associated protein 1 light chain 3 beta; test: Induction of LC3B-mediated autophagy flux in HEK293T cells overexpressing alpha-synuclein (unknown origin) assessed as increase in ratio of LC3B-II to LC3B-I levels incubated for 4 hrs by immunoblot analysis; format: cell-based; conditions: dose <= 100.0 µM
Alpha-synuclein [12] = target: T2, Alpha-synuclein; test: Binding affinity to alpha-synuclein (unknown origin) overexpressed in HEK293T cells at 50 to 100 uM incubated for 4 hrs by co-IP assay; format: cell-based; conditions: dose 50-100 µM
[13] = Drug localization in HEK293T cells overexpressing mCherry-fused alpha-synuclein (unknown origin) assessed as colocalization of autophagosomes at 50 uM incubated for 2 hrs by MDC staining based confocal laser scanning microscopy; format: ADME, cell-based; conditions: human, hek-293t
Alpha-synuclein [14] = target: T2, Alpha-synuclein; test: Induction of alpha-synuclein (unknown origin) degradation overexpressed in HEK293T cells at 50 uM incubated for 24 hrs in presence of MG132 by immunoblot analysis; format: cell-based
Alpha-synuclein [15] = target: T2, Alpha-synuclein; test: Induction of alpha-synuclein (unknown origin) degradation overexpressed in HEK293T cells at 50 uM incubated for 24 hrs in presence of Rapamycin by immunoblot analysis; format: cell-based
Alpha-synuclein [16] = target: T2, Alpha-synuclein; test: Induction of alpha-synuclein (unknown origin) degradation overexpressed in HEK293T cells with LC3B knockdown at 50 uM incubated for 24 hrs by immunoblot analysis; format: cell-based
SH-SY5Y = test: Cytoprotective activity in human SH-SY5Y cells assessed as increase in CCCP-induced mitochondrial membrane potential level at 100 uM measured after 24 hrs by JC-1 staining based confocal laser scanning microscopy; format: functional, cell-based
Mus musculus [17] = test: Downregulation of alpha-synuclein level in substantia nigra pars compacta of MPTP-treated C57BL/6 mouse at 50 mg/kg/day, iv treated for 5 days by IHC analysis; format: functional, organism-based; conditions: time 5.0 day
Mus musculus [18] = test: Neuroprotective activity in MPTP-treated C57BL/6 mouse assessed as decrease in impaired neurons in substantia nigra pars compacta at 50 mg/kg/day, iv treated for 5 days by FJB staining based microscopy; format: functional, organism-based; conditions: time 5.0 day
Mus musculus [19] = test: Downregulation of aggregated alpha-synuclein level in substantia nigra pars compacta of MPTP-treated C57BL/6 mouse at 50 mg/kg/day, iv treated for 5 days by IHC analysis; format: functional, organism-based; conditions: time 5.0 day
Mus musculus [20] = test: Neuroprotective activity in MPTP-induced anxiety-like status in C57BL/6 mouse assessed as increase in distance travelled in zone centers of mouse track at 50 mg/kg/day, iv treated for 5 days measured after 4 days by open field test; format: functional, organism-based; conditions: time 9.0 day
Mus musculus [21] = test: Neuroprotective activity in MPTP-induced cognitive impairment in C57BL/6 mouse assessed as decrease in escape latency in navigation trial phase at 50 mg/kg/day, iv treated for 5 days measured after 5 to 8 days days by morris water maze test; format: functional, organism-based; conditions: time 10-13 day
Mus musculus [22] = test: Neuroprotective activity in MPTP-induced cognitive impairment in C57BL/6 mouse assessed as increase in platform crossover number in probe trial phase at 50 mg/kg/day, iv treated for 5 days measured after 5 to 8 days days by morris water maze test; format: functional, organism-based; conditions: time 10-13 day
[23] = Toxicity in C57BL/6 mouse assessed as lethargy at 50 to 200 mg/kg/day treated for 5 days; format: organism-based; conditions: in vivo, 120 h, dose 50-200 mg/kg/day, time 5 day
Mus musculus [24] = test: Neuroprotective activity in MPTP-induced cognitive impairment in C57BL/6 mouse assessed as increase in distance travelled in target quadrant in probe trial phase at 50 mg/kg/day, iv treated for 5 days measured after 5 to 8 days days by morris water maze test; format: functional, organism-based; conditions: time 10-13 day
[25] = Toxicity in C57BL/6 mouse assessed as tremor at 50 to 200 mg/kg/day treated for 5 days; format: organism-based; conditions: in vivo, 120 h, dose 50-200 mg/kg/day, time 5 day
[26] = Toxicity in C57BL/6 mouse assessed as dyspnea at 50 to 200 mg/kg/day treated for 5 days; format: organism-based; conditions: in vivo, 120 h, dose 50-200 mg/kg/day, time 5 day
[27] = Toxicity in C57BL/6 mouse assessed as change in cardiac electrophysiology at 50 to 100 mg/kg/day treated for 5 days by ECG analysis; format: organism-based; conditions: in vivo, 120 h, dose 50-100 mg/kg/day, time 5 day
[28] = Toxicity in C57BL/6 mouse assessed as change in urea level at 50 to 200 mg/kg/day treated for 5 days; format: organism-based; conditions: in vivo, 120 h, dose 50-200 mg/kg/day, time 5 day
[29] = Toxicity in C57BL/6 mouse assessed as change in CKMB level at 50 to 200 mg/kg/day treated for 5 days; format: organism-based; conditions: in vivo, 120 h, dose 50-200 mg/kg/day, time 5 day
[30] = Toxicity in C57BL/6 mouse assessed as change in LDH1 level at 50 to 200 mg/kg/day treated for 5 days; format: organism-based; conditions: in vivo, 120 h, dose 50-200 mg/kg/day, time 5 day
[31] = Toxicity in C57BL/6 mouse assessed as histological change in kidney at 50 to 200 mg/kg/day treated for 5 days by H and E staining based analysis; format: organism-based; conditions: in vivo, 120 h, dose 50-200 mg/kg/day, time 5 day

SMILES: CC(C)C[C@H](NC(=O)[C@H](Cc1c[nH]cn1)NC(=O)[C@@H](NC(=O)[C@H](Cc1c[nH]c2ccccc12)NC(=O)[C@H](CC(=O)O)NC(=O)[C@H](CC(=O)O)NC(=O)[C@H](CC(=O)O)NC(=O)CNC(=O)CNC(=O)[C@H](CO)NC(=O)[C@H](CO)NC(=O)CNC(=O)[C@H](CO)NC(=O)CNC(=O)[C@H](CCCNC(=N)N)NC(=O)[C@@H](NC(=O)[C@H](CCCCN)NC(=O)[C@H](CO)NC(=O)CNC(=O)[C@@H](NC(=O)[C@H](Cc1ccc(O)cc1)NC(=O)[C@H](CC(C)C)NC(=O)[C@@H](NC(=O)CN)C(C)C)C(C)C)[C@H](C)O)[C@@H](C)O)C(=O)N[C@@H](CO)C(=O)N[C@@H](CO)C(=O)N[C@@H](Cc1ccc(O)cc1)C(=O)NCC(=O)N[C@@H](CCCNC(=N)N)C(=O)N[C@@H](CCCCN)C(=O)N[C@@H](CCCCN)C(=O)N[C@@H](CCCNC(=N)N)C(=O)N[C@@H](CCCNC(=N)N)C(=O)N[C@@H](CCC(N)=O)C(=O)N[C@@H](CCCNC(=N)N)C(=O)N[C@@H](CCCNC(=N)N)C(=O)N[C@@H](CCCNC(=N)N)C(=O)O
- Activity [1]: Dose-Dependent Effect
- Kd (Alpha-synuclein [2]): 8.83 µM
- Kd [3]: 14.9 µM
- Activity (Alpha-synuclein [4]): Active
- Activity (HEK-293T [5]): Active
- Activity (HEK-293T [6]): Active
- Activity (HEK-293T [7]): Active
- Activity (HEK-293T [8]): Active
- Activity (HEK-293T [9]): Active
- Activity (HEK-293T [10]): Active
- Activity [11]: Dose-Dependent Effect
- Activity (Alpha-synuclein [12]): Active
- Drug uptake [13]: Active
- Activity (Alpha-synuclein [14]): Active
- Activity (Alpha-synuclein [15]): Active
- Activity (Alpha-synuclein [16]): Active
- Activity (SH-SY5Y): inactive
- Activity (Mus musculus [17]): Active
- Activity (Mus musculus [18]): Active
- Activity (Mus musculus [19]): Active
- Activity (Mus musculus [20]): Active
- Activity (Mus musculus [21]): Active
- Activity (Mus musculus [22]): Active
- Activity [23]: Non-Toxic
- Activity (Mus musculus [24]): Active
- Activity [25]: Non-Toxic
- Activity [26]: Non-Toxic
- Activity [27]: Non-Toxic
- Activity [28]: Non-Toxic
- Activity [29]: Non-Toxic
- Activity [30]: Non-Toxic
- Activity [31]: Non-Toxic
